Experimental data as given in ChEMBL document CHEMBL5050844 (2019).

How the values were obtained:
[1] = target: T1, E3 ubiquitin-protein ligase CBL-B (Homo sapiens, UniProt Q13191); assay: Inhibition of N-terminal Avi-tagged human CBL-B (36 to 427 residues) incubated with 60 nM Src kinase for 1.5 hrs followed by incubation with fluorescently labeled UbcH5B-Ub for 1 hr and measured by TR-FRET assay; assay type: single protein
[2] = Induction of anti-CD3/CD28 antibodies-stimulated human T cell activation at 0.3 uM assessed fold increase in IL-2 secretion measured by ELISA assay; assay type: functional, T cell line
[3] = Induction of anti-CD3/CD28 antibodies-stimulated human T cell activation at 1 uM assessed fold increase in CD25 expression measured by ELISA assay; assay type: functional, T cell line
[4] = Induction of anti-CD3 antibodies-stimulated human T cell activation at 8 uM assessed fold increase in CD25 expression measured by ELISA assay; assay type: functional, T cell line; note: reference of the scale not given here
[5] = Induction of anti-CD3/CD28 antibodies-stimulated human CD4+ T cell activation at 10 uM assessed fold increase in CD69 expression measured by flow cytometry analysis; assay type: functional, T cell line
[6] = Induction of anti-CD3/CD28 antibodies-stimulated human CD4+ T cell activation at 1.11 uM assessed fold increase in CD69 expression measured by flow cytometry analysis; assay type: functional, T cell line
[7] = Induction of anti-CD3/CD28 antibodies-stimulated human T cell activation at 10 uM assessed fold increase in GM-CSF secretion measured by ELISA assay; assay type: functional, T cell line
[8] = Induction of anti-CD3 antibodies-stimulated human T cell activation at 10 uM assessed fold increase in TNF-alpha secretion measured by ELISA assay; assay type: functional, T cell line; note: reference of the scale not given here
[9] = Induction of anti-CD3 antibodies-stimulated human T cell activation at 1.11 uM assessed fold increase in TNF-alpha secretion measured by ELISA assay; assay type: functional, T cell line; note: reference of the scale not given here
[10] = Induction of anti-CD3/CD28 antibodies-stimulated human T cell activation at 10 uM assessed fold increase in IFN-gamma secretion measured by ELISA assay; assay type: functional, T cell line
[11] = Induction of anti-CD3 antibodies-stimulated human T cell activation at 1.11 uM assessed fold increase in IFN-gamma secretion measured by ELISA assay; assay type: functional, T cell line; note: reference of the scale not given here
[12] = Induction of allogenic human T cell activation at 10 uM assessed fold increase in cell proliferation; assay type: functional, T cell line
[13] = Induction of allogenic human T cell activation at 3 uM assessed fold increase in cell proliferation; assay type: functional, T cell line
[14] = Induction of anti-CD3 antibodies-stimulated human exhausted T cell activation assessed fold increase in IFN-gamma secretion measured by ELISA assay; assay type: functional, T cell line; note: reference of the scale not given here
[15] = Induction of anti-CD3/CD28 antibodies-stimulated human anergic T cell activation at 10 uM assessed fold increase in IFN-gamma secretion measured by ELISA assay; assay type: functional, T cell line
[16] = Induction of activation of human CD56+ CD3- NK cells co-cultured with human K562 cells in 5:1 ratio and assessed as increase in IFN-gamma secretion at 10 uM measured by ELISA assay; assay type: functional, Natural killer cell
[17] = Induction of activation of human CD56+ CD3- NK cells co-cultured with human K562 cells in 5:1 ratio and assessed as increase in IFN-gamma secretion at 1 uM measured by ELISA assay; assay type: functional, Natural killer cell
[18] = Induction of activation of human CD56+ CD3- NK cells co-cultured with human K562 cells in 1:1 ratio and assessed as increase in IFN-gamma secretion at 1 uM measured by ELISA assay; assay type: functional, Natural killer cell
[19] = Induction of activation of human CD56+ CD3- NK cells co-cultured with human K562 cells in 5:1 ratio and assessed as increase in TNF-alpha secretion at 10 uM measured by ELISA assay; assay type: functional, Natural killer cell
[20] = Induction of activation of human CD56+ CD3- NK cells co-cultured with human K562 cells in 5:1 ratio and assessed as increase in TNF-alpha secretion at 1 uM measured by ELISA assay; assay type: functional, Natural killer cell
[21] = Induction of activation of human CD56+ CD3- NK cells co-cultured with human K562 cells in 1:1 ratio and assessed as increase in TNF-alpha secretion at 10 uM measured by ELISA assay; assay type: functional, Natural killer cell
[22] = Induction of activation of human CD56+ CD3- NK cells co-cultured with human K562 cells in 1:1 ratio and assessed as increase in TNF-alpha secretion at 1 uM measured by ELISA assay; assay type: functional, Natural killer cell
[23] = Induction of activation of human CD56+ CD3- NK cells co-cultured with human K562 cells in 5:1 ratio and assessed as increase in MIP1beta secretion at 10 uM measured by ELISA assay; assay type: functional, Natural killer cell
[24] = Induction of activation of human CD56+ CD3- NK cells co-cultured with human K562 cells in 5:1 ratio and assessed as increase in MIP1beta secretion at 1 uM measured by ELISA assay; assay type: functional, Natural killer cell
[25] = Induction of activation of human CD56+ CD3- NK cells co-cultured with human K562 cells in 1:1 ratio and assessed as increase in MIP1beta secretion at 10 uM measured by ELISA assay; assay type: functional, Natural killer cell
[26] = Induction of activation of human CD56+ CD3- NK cells co-cultured with human K562 cells in 1:1 ratio and assessed as increase in MIP1beta secretion at 1 uM measured by ELISA assay; assay type: functional, Natural killer cell
[27] = target: T1, E3 ubiquitin-protein ligase CBL-B; assay: Binding affinity towards N-terminal biotinylated Avi-tagged human CBL-B (36 to 427 residues) measured by surface plasmon resonance assay
[28] = Induction of anti-CD3 antibodies-stimulated human CD4+ T cell activation in immunocompetent mouse assessed fold increase in CD25 expression at 90 mg/kg, po administered twice a day; assay type: functional; note: reference of the scale not given here
[29] = Induction of anti-CD3 antibodies-stimulated human CD4+ T cell activation in immunocompetent mouse assessed fold increase in CD25 expression at 135 mg/kg, po administered twice a day; assay type: functional; note: reference of the scale not given here
[30] = Induction of anti-CD3 antibodies-stimulated human CD4+ T cell activation in immunocompetent mouse assessed fold increase in CD25 expression at 180 mg/kg, po administered twice a day; assay type: functional; note: reference of the scale not given here
[31] = Induction of anti-CD3 antibodies-stimulated human CD8+ T cell activation in immunocompetent mouse assessed fold increase in CD25 expression at 90 mg/kg, ip administered thrice a day; assay type: functional; note: reference of the scale not given here
[32] = Induction of anti-CD3 antibodies-stimulated human CD8+ T cell activation in immunocompetent mouse assessed fold increase in CD25 expression at 135 mg/kg, po administered twice a day; assay type: functional; note: reference of the scale not given here
[33] = Induction of anti-CD3 antibodies-stimulated human CD8+ T cell activation in immunocompetent mouse assessed fold increase in CD25 expression at 180 mg/kg, po administered twice a day; assay type: functional; note: reference of the scale not given here
[34] = Induction of anti-CD3 antibodies-stimulated human CD4+ T cell activation in immunocompetent mouse assessed fold increase in CD25 expression at 90 mg/kg, ip administered twice a day; assay type: functional; note: reference of the scale not given here
[35] = Induction of anti-CD3 antibodies-stimulated human CD8+ T cell activation in immunocompetent mouse assessed fold increase in CD25 expression at 90 mg/kg, po administered twice a day; assay type: functional; note: reference of the scale not given here

T1 sequence (Q13191 whole entry, the tested form may be a part): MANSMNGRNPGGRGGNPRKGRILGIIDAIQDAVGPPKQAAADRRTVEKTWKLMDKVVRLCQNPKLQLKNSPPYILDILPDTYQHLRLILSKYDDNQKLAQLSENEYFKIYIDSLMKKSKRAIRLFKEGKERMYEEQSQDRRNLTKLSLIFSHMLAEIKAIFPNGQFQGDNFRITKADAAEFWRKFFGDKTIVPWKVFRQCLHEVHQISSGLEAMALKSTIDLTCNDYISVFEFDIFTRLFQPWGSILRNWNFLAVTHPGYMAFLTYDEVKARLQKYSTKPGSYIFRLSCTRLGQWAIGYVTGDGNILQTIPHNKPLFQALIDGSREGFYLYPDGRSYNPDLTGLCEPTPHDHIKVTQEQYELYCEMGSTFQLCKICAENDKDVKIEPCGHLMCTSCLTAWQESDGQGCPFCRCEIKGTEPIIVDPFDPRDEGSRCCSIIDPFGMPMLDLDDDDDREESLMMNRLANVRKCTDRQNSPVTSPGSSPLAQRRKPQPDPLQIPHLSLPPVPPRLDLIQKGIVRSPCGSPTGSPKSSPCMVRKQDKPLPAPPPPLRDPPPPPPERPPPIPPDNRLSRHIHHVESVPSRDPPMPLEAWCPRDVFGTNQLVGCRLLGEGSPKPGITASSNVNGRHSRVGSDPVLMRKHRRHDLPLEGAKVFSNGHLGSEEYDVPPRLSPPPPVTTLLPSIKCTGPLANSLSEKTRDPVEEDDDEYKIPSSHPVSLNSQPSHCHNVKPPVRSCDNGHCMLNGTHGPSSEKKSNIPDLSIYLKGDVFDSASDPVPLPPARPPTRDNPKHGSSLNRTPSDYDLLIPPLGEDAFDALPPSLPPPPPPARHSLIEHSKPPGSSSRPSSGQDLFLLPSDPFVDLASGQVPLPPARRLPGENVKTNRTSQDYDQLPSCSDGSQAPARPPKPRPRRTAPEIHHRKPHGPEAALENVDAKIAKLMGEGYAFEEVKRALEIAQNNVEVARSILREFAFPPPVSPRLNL

| IC50 [1] [nM] | SMILES | fold change (FC) [2] | fold change (FC) [3] | fold change (FC) [4] | fold change (FC) [5] | fold change (FC) [6] | fold change (FC) [7] | fold change (FC) [8] | fold change (FC) [9] | fold change (FC) [10] | fold change (FC) [11] | fold change (FC) [12] | fold change (FC) [13] | fold change (FC) [14] | fold change (FC) [15] | fold change (FC) [16] | fold change (FC) [17] | fold change (FC) [18] | fold change (FC) [19] | fold change (FC) [21] | further results |
| --- | --- | --- | --- | --- | --- | --- | --- | --- | --- | --- | --- | --- | --- | --- | --- | --- | --- | --- | --- | --- | --- |
| < 100 | Cn1cnnc1C(F)(F)[C@](C)(F)c1cccc(N2Cc3c(cc(C(=O)N4CC[C@H](O)C4)cc3C(F)(F)F)C2=O)c1 | 1.01 | 1.01 | >=1.001 | 1.401 | 1.201 | 2.01 | 1.51 | 2.01 | 2.01 | <=2 | <=2 | <=2 | <=1.4 | >4.01 | 1.01 | <=1 | <=1 | 1.01 | 1.01 | fold change (FC) [20]: 1.01; fold change (FC) [22]: 1.01; fold change (FC) [23]: 1.01; fold change (FC) [24]: <=1; fold change (FC) [25]: <=1; fold change (FC) [26]: <=1 |
| < 100 | Cc1cc(C(=O)Nc2cccc([C@H](C)Cc3nncn3C)c2)nc(C2CC2)n1 | 5 | >=1.76 | >=1.001 | >1.601 | <=1.2 | >4 | 1.51 | 1.51 | >4 | 2.01 | 2.01 | <=2 | 1.41 | <=2.5 | >=5 | 2.01 | 2.01 | >=5 | 2.01 | Kd [27]: < 100 nM; fold change (FC) [28]: 1; fold change (FC) [29]: 1; fold change (FC) [30]: 1.51; fold change (FC) [31]: 1; fold change (FC) [32]: 1; fold change (FC) [33]: 1; fold change (FC) [20]: 2.01; fold change (FC) [22]: 2.01; fold change (FC) [23]: 2.01; fold change (FC) [24]: 2.01; fold change (FC) [25]: 2.01; fold change (FC) [26]: 1.01 |
| < 100 | Cn1cnnc1CC1(c2cccc(N3Cc4c(cc(CN5CCC6(CC6)C5)cc4C(F)(F)F)C3=O)c2)COC1 | >=7.5 | 1.31 | – | >1.601 | >1.601 | >4 | 2.01 | 2.01 | >4 | >4 | >3 | >3 | <=1.4 | >4.01 | – | – | – | – | >=5 | fold change (FC) [34]: 1; fold change (FC) [28]: 1; fold change (FC) [29]: 1.51; fold change (FC) [30]: 2.01; fold change (FC) [31]: 1; fold change (FC) [35]: 1; fold change (FC) [32]: 1; fold change (FC) [33]: 1 |
| < 100 | C[C@H](Cc1nncn1C)c1cccc(N2Cc3c(cccc3C(F)(F)F)C2=O)c1.Cl | 1.01 | 1.51 | >=1.001 | 1.201 | <=1.2 | 1.51 | <=1.5 | <=1.5 | >4 | <=2 | <=2 | <=2 | <=1.4 | <=2.5 | >=5 | 1.01 | 1.01 | <=1 | <=1 | fold change (FC) [34]: 1; fold change (FC) [35]: <1; fold change (FC) [20]: <=1; fold change (FC) [22]: <=1; fold change (FC) [23]: 1.01; fold change (FC) [24]: <=1; fold change (FC) [25]: 1.01; fold change (FC) [26]: <=1 |
| < 100 | C[C@H](Cc1nncn1C)c1cccc(N2Cc3c(cc(CN4CC[C@H](F)C4)cc3C(F)(F)F)C2=O)c1 | 5 | 1.31 | >=1.001 | >1.601 | >1.601 | >4 | 1.51 | 2.01 | >4 | 3.01 | >3 | 2.01 | >1.61 | >4.01 | >=5 | 2.01 | 2.01 | >=5 | 2.01 | Kd [27]: < 100 nM; fold change (FC) [20]: 2.01; fold change (FC) [22]: 2.01; fold change (FC) [23]: 1.01; fold change (FC) [24]: 1.01; fold change (FC) [25]: 1.01; fold change (FC) [26]: 1.01 |
| < 100 | Cc1cc(C(=O)Nc2cccc(C3(Cc4nncn4C)COC3)c2)nc(C2CC2)n1 | 5 | >=1.76 | >=1.001 | 1.401 | 1.401 | >4 | 1.51 | 1.51 | >4 | 2.01 | >3 | <=2 | 1.41 | >4.01 | – | – | – | – | >=5 | Kd [27]: < 100 nM; fold change (FC) [34]: 1; fold change (FC) [28]: 1; fold change (FC) [29]: 1.51; fold change (FC) [30]: 1.51; fold change (FC) [31]: 1; fold change (FC) [35]: 1; fold change (FC) [32]: 1; fold change (FC) [33]: 1 |
